Results reported in patent publication US7960376B2, “Benzo-fused heterocycles” (priority 2007, dated 2011).

Legend:
[1] = target: T1, rat CB2 receptor (rCB2) (Rattus norvegicus, UniProt Q9QZN9); assay: cell-based; type: cell-based; conditions: intracellular cAMP, CHO-K1 cells, NKH-477 prestimulated; + agonist, − inverse agonist
T1 sequence (Q9QZN9 1-360): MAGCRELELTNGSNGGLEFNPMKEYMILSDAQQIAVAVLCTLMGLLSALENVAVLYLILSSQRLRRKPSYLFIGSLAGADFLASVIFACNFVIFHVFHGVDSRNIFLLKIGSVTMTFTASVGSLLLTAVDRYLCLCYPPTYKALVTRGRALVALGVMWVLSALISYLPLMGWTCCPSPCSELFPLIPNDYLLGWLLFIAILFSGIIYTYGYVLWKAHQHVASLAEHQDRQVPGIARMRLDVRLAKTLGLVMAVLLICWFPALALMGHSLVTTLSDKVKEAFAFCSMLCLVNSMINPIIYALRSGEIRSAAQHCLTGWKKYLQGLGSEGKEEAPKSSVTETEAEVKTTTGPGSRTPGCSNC

[2] = target: human CB2 receptor (hCB2) (Homo sapiens, UniProt P34972); assay: cell-based; type: cell-based; conditions: intracellular cAMP, CHO-K1 cells, NKH-477 prestimulated; + agonist, − inverse agonist
Chain of human CB2 receptor (hCB2) (P34972 whole entry): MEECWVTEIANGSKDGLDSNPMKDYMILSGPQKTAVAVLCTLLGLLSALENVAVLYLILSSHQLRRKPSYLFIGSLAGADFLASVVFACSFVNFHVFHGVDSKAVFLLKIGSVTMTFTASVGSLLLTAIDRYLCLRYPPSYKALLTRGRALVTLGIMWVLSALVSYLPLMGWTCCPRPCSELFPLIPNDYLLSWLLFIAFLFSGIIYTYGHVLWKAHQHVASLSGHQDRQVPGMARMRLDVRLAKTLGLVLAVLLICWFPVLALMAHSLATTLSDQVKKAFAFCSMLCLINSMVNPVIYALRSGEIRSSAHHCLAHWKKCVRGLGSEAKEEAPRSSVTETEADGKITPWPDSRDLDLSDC

`CC(C)(C)NC(=O)c1ccc2c(c1)N(C(=O)c1ccccc1)CCS2` [Example 9, 4-benzoyl-N-tert-butyl-3,4-dihydro-2H-benzo[b][1,4]thiazine-6-carboxamide] was tested, and the “rCB2 EC50 range” value [1] was “−D”.

For `CC(C)(C)NC(=O)c1ccc2c(c1)N(C(=O)c1ccc(Cl)cc1)CCS2` [Example 10, N-tert-butyl-4-(4-chlorobenzoyl)-3,4-dihydro-2H-benzo[b][1,4]thiazine-6-carboxamide], the “rCB2 EC50 range” value [1] was “+D” and the “hCB2 EC50 range” value [2] was “+D”.

With `COc1ccc(C(=O)N2CCSc3ccc(C(=O)NC4CCCC4)cc32)cc1` [Example 11, N-cyclopentyl-4-(4-methoxybenzoyl)-3,4-dihydro-2H-benzo[b] [1,4]thiazine-6-carboxamide] the “rCB2 EC50 range” value [1] was “−D” and the “hCB2 EC50 range” value [2] was “−E”.

With `O=C(NC1CCCC1)c1ccc2c(c1)N(C(=O)c1ccc(Cl)cc1)CCS2` [Example 15, N-cyclopentyl-4-(4-chlorobenzoyl)-3,4-dihydro-2H-benzo[b] [1,4]thiazine-6-carboxamide] the “rCB2 EC50 range” value [1] was “−E”.

For `COCCCNC(=O)c1ccc2c(c1)N(C(=O)c1ccccc1)CCS2` [Example 16, 4-benzoyl-N-(3-methoxypropyl)-3,4-dihydro-2H-benzo[b][1,4]thiazine-6-carboxamide], the “rCB2 EC50 range” value [1] was “−D” and the “hCB2 EC50 range” value [2] was “−E”.

With `COCCCNC(=O)c1ccc2c(c1)N(C(=O)c1ccc(F)cc1)CCS2` [Example 17] the “rCB2 EC50 range” value [1] was “−E”.

For `COCCCNC(=O)c1ccc2c(c1)N(C(=O)c1ccc(C)cc1)CCS2` [Example 18, N-(3-methoxypropyl)-4-(4-methylbenzoyl)-3,4-dihydro-2H-benzo[b][1,4]thiazine-6-carboxamide], the “rCB2 EC50 range” value [1] was “−E” and the “hCB2 EC50 range” value [2] was “−E”.

For `COCCCNC(=O)c1ccc2c(c1)N(C(=O)c1ccc(Cl)cc1)CCS2` [Example 19], the “rCB2 EC50 range” value [1] was “−E” and the “hCB2 EC50 range” value [2] was “−E”.

For `COCCCNC(=O)c1ccc2c(c1)N(C(=O)c1ccc(OC)cc1)CCS2` [Example 20], the “hCB2 EC50 range” value [2] was “−E”.

With `CC(C)NC(=O)c1ccc2c(c1)N(C(=O)c1ccccc1)CCS2` [Example 26, 4-benzoyl-N-isopropyl-3,4-dihydro-2H-benzo[b][1,4]thiazine-6-carboxamide] the “rCB2 EC50 range” value [1] was “−E”.

In the case of `CC(C)NC(=O)c1ccc2c(c1)N(C(=O)c1ccc(F)cc1)CCS2` [Example 27], the “rCB2 EC50 range” value [1] is reported as “+D” and the “hCB2 EC50 range” value [2] is reported as “+E”.

`CC(C)NC(=O)c1ccc2c(c1)N(C(=O)c1ccc(Cl)cc1)CCS2` [Example 29] was tested, and the “rCB2 EC50 range” value [1] was “+D” and the “hCB2 EC50 range” value [2] was “+D”.

With `COc1ccc(C(=O)N2CCSc3ccc(C(=O)NC(C)C)cc32)cc1` [Example 30, N-isopropyl-4-(4-methoxybenzoyl)-3,4-dihydro-2H-benzo[b][1,4]thiazine-6-carboxamide] the “rCB2 EC50 range” value [1] was “−E” and the “hCB2 EC50 range” value [2] was “−E”.

For `CC(=O)N1CCSc2ccc(C(=O)NC(C)(C)C)cc21` [Example 32, 4-acetyl-N-tert-butyl-3,4-dihydro-2H-benzo[b][1,4]thiazine-6-carboxamide], the “rCB2 EC50 range” value [1] was “−E”.

In the case of `CCC(=O)N1CCSc2ccc(C(=O)NC(C)(C)C)cc21` [Example 33, N-tert-butyl-4-propionyl-3,4-dihydro-2H-benzo[b][1,4]thiazine-6-carboxamide], the “hCB2 EC50 range” value [2] is reported as “+D”.

`CC(C)C(=O)N1CCSc2ccc(C(=O)NC(C)(C)C)cc21` [Example 34, N-tert-butyl-4-isobutyryl-3,4-dihydro-2H-benzo[b][1,4]thiazine-6-carboxamide] was tested, and the “rCB2 EC50 range” value [1] was “+D” and the “hCB2 EC50 range” value [2] was “+D”.

`CC(=O)N1CCSc2ccc(C(=O)NC3CCCC3)cc21` [Example 35, 4-acetyl-N-cyclopentyl-3,4-dihydro-2H-benzo[b][1,4]thiazine-6-carboxamide] was tested, and the “rCB2 EC50 range” value [1] was “−E” and the “hCB2 EC50 range” value [2] was “+E”.

`CCC(=O)N1CCSc2ccc(C(=O)NC3CCCC3)cc21` [Example 36, N-cyclopentyl-4-propionyl-3,4-dihydro-2H-benzo[b][1,4]thiazine-6-carboxamide] was tested, and the “rCB2 EC50 range” value [1] was “−E” and the “hCB2 EC50 range” value [2] was “+E”.

With `CC(C)C(=O)N1CCSc2ccc(C(=O)NC3CCCC3)cc21` [Example 37, N-cyclopentyl-4-isobutyryl-3,4-dihydro-2H-benzo[b][1,4]thiazine-6-carboxamide] the “rCB2 EC50 range” value [1] was “−E” and the “hCB2 EC50 range” value [2] was “+E”.

In the case of `COCCCNC(=O)c1ccc2c(c1)N(C(=O)C(C)C)CCS2` [Example 38, 4-isobutyryl-N-(3-methoxypropyl)-3,4-dihydro-2H-benzo[b][1,4]thiazine-6-carboxamide], the “rCB2 EC50 range” value [1] is reported as “−E”.

For `CC(C)CNC(=O)c1ccc2c(c1)N(S(=O)(=O)c1ccccc1)CCS2` [Example 41, N-isobutyl-4-(phenylsulfonyl)-3,4-dihydro-2H-benzo-[b][1,4]thiazine-6-carboxamide], the “rCB2 EC50 range” value [1] was “+A” and the “hCB2 EC50 range” value [2] was “+C”.

In the case of `O=C(NC1CCCC1)c1ccc2c(c1)N(S(=O)(=O)c1ccccc1)CCS2` [Example 44, N-cyclopentyl-4-(phenylsulfonyl)-3,4-dihydro-2H-benzo[b][1,4]thiazine-6-carboxamide], the “rCB2 EC50 range” value [1] is reported as “+B” and the “hCB2 EC50 range” value [2] is reported as “+C”.

`CC(C)(C)NC(=O)c1ccc2c(c1)N(S(=O)(=O)c1ccccc1)CCS2` [Example 46, N-tert-butyl-4-(phenylsulfonyl)-3,4-dihydro-2H-benzo[b][1,4]thiazine-6-carboxamide] was tested, and the “rCB2 EC50 range” value [1] was “+B” and the “hCB2 EC50 range” value [2] was “+B”.

`COCCCNC(=O)c1ccc2c(c1)N(S(=O)(=O)c1ccccc1)CCS2` [Example 48, N-(3-methoxypropyl)-4-(phenylsulfonyl)-3,4-dihydro-2H-benzo[b][1,4]thiazine-6-carboxamide] was tested, and the “rCB2 EC50 range” value [1] was “+B” and the “hCB2 EC50 range” value [2] was “+D”.

In the case of `CC(C)NC(=O)c1ccc2c(c1)N(S(=O)(=O)c1ccccc1)CCS2` [Example 52, N-isopropyl-4-(phenylsulfonyl)-3,4-dihydro-2H-benzo[b][1,4]thiazine-6-carboxamide], the “rCB2 EC50 range” value [1] is reported as “+A” and the “hCB2 EC50 range” value [2] is reported as “+C”.

With `CC(C)(C)NC(=O)c1ccc2c(c1)N(S(C)(=O)=O)CCS2` [Example 53, N-tert-butyl-4-(methylsulfonyl)-3,4-dihydro-2H-benzo[b][1,4]thiazine-6-carboxamide] the “rCB2 EC50 range” value [1] was “+D” and the “hCB2 EC50 range” value [2] was “+E”.

`CC(C)CNC(=O)c1ccc2c(c1)N(S(C)(=O)=O)CCS2` [Example 54, N-isobutyl-4-(methylsulfonyl)-3,4-dihydro-2H-benzo[b][1,4]thiazine-6-carboxamide] was tested, and the “rCB2 EC50 range” value [1] was “+D” and the “hCB2 EC50 range” value [2] was “+E”.

With `CS(=O)(=O)N1CCSc2ccc(C(=O)NC3CCCC3)cc21` [Example 55, N-cyclopentyl-4-(methylsulfonyl)-3,4-dihydro-2H-benzo[b][1,4]thiazine-6-carboxamide] the “rCB2 EC50 range” value [1] was “+D” and the “hCB2 EC50 range” value [2] was “+E”.

In the case of `COCCCNC(=O)c1ccc2c(c1)N(S(C)(=O)=O)CCS2` [Example 56, N-(3-methoxypropyl)-4-(methylsulfonyl)-3,4-dihydro-2H-benzo[b][1,4]thiazine-6-carboxamide], the “rCB2 EC50 range” value [1] is reported as “+E”.

`CC(C)NC(=O)c1ccc2c(c1)N(S(C)(=O)=O)CCS2` [Example 57, N-isopropyl-4-(methylsulfonyl)-3,4-dihydro-2H-benzo[b][1,4]thiazine-6-carboxamide] was tested, and the “rCB2 EC50 range” value [1] was “+D” and the “hCB2 EC50 range” value [2] was “+E”.

In the case of `CC(C)CNC(=O)c1ccc2c(c1)N(S(=O)(=O)c1ccccc1)CCO2` [Example 59, N-isobutyl-4-(phenylsulfonyl)-3,4-dihydro-2H-benzo [b][1,4]oxazine-6-carboxamide], the “rCB2 EC50 range” value [1] is reported as “+C” and the “hCB2 EC50 range” value [2] is reported as “+C”.

`CCN(CC)C(=O)c1ccc2c(c1)N(S(=O)(=O)c1ccccc1)CCS2` [Example 65, N,N-diethyl-4-(phenylsulfonyl)-3,4-dihydro-2H-benzo[b][1,4]thiazine-6-carboxamide] was tested, and the “rCB2 EC50 range” value [1] was “+C” and the “hCB2 EC50 range” value [2] was “+C”.

For `O=C(c1ccc2c(c1)N(S(=O)(=O)c1ccccc1)CCS2)N1CCCC1` [Example 66, (4-(phenylsulfonyl)-3,4-dihydro-2H-benzo[b][1,4]thiazin-6-yl)(pyrrolidin-1-yl)methanone], the “rCB2 EC50 range” value [1] was “+D” and the “hCB2 EC50 range” value [2] was “+D”.

In the case of `O=C(c1ccc2c(c1)N(S(=O)(=O)c1ccccc1)CCS2)N1CCCCC1` [Example 67, (4-(phenylsulfonyl)-3,4-dihydro-2H-benzo[b][1,4]thiazin-6-yl)(piperidin-1-yl)methanone], the “rCB2 EC50 range” value [1] is reported as “+C” and the “hCB2 EC50 range” value [2] is reported as “+D”.

In the case of `O=C(c1ccc2c(c1)N(S(=O)(=O)c1ccccc1)CCS2)N1CCOCC1` [Example 68], the “rCB2 EC50 range” value [1] is reported as “+D” and the “hCB2 EC50 range” value [2] is reported as “+D”.

With `O=C(c1ccc2c(c1)N(S(=O)(=O)c1ccc(C(F)(F)F)cc1)CCS2)N1CCCCC1` [Example 75, piperidin-1-yl(4-(4-(trifluoromethyl)phenylsulfonyl)-3,4-dihydro-2H-benzo[b][1,4]thiazin-6-yl)methanone] the “rCB2 EC50 range” value [1] was “−C”.

`O=S(=O)(c1ccc(C(F)(F)F)cc1)N1CCSc2ccc(-c3nc(-c4cccc(C(F)(F)F)c4)no3)cc21` [Example 80, 3-(3-(trifluoromethyl)phenyl)-5-(4-(4-(trifluoromethyl)phenylsulfonyl)-3,4-dihydro-2H-benzo[b][1,4]thiazin-6-yl)-1,2,4-oxadiazole] was tested, and the “hCB2 EC50 range” value [2] was “+D”.

For `CC1(C)CCN(S(=O)(=O)c2ccc(F)cc2)c2cc(C(=O)N3CCCC3)ccc2S1` [Example 102, (5-(4-fluorophenyl-sulfonyl)-2,2-dimethyl-2,3,4,5-tetrahydro-benzo[b][1,4]thiazepin-7-yl)(pyrrolidin-1-yl)-methanone], the “rCB2 EC50 range” value [1] was “+C”.
